# Data as given in paper doi:10.1101/706168v1 (biorxiv, 2019).
# Assays:
# Test in all cases: cell-based
# [1] = biological target: TRPV4 (Homo sapiens, UniProt Q9HBA0)
# [2] = biological target: T1, Kv4.3 (Homo sapiens, UniProt Q9UK17)
# T1 sequence (Q9UK17 1-655): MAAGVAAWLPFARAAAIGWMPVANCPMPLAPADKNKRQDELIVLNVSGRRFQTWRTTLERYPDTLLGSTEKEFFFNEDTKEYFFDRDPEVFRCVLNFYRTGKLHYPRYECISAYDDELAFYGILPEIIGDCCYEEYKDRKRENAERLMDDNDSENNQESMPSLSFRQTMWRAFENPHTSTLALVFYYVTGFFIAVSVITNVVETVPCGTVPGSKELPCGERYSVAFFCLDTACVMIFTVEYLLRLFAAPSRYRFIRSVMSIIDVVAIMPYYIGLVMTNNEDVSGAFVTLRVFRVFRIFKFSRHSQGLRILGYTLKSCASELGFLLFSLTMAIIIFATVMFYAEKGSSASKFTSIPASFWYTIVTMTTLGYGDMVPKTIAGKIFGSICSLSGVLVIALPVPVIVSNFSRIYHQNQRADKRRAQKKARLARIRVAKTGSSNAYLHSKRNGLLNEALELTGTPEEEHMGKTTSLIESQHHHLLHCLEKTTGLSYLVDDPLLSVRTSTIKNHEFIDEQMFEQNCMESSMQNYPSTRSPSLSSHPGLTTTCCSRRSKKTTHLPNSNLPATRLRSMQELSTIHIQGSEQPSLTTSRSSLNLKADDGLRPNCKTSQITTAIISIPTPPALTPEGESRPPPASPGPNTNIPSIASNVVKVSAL
# [3] = biological target: hERG (Homo sapiens, UniProt Q12809)
# [4] = biological target: T2, TRESK (Homo sapiens, UniProt Q7Z418)
# T2 sequence (Q7Z418 1-384): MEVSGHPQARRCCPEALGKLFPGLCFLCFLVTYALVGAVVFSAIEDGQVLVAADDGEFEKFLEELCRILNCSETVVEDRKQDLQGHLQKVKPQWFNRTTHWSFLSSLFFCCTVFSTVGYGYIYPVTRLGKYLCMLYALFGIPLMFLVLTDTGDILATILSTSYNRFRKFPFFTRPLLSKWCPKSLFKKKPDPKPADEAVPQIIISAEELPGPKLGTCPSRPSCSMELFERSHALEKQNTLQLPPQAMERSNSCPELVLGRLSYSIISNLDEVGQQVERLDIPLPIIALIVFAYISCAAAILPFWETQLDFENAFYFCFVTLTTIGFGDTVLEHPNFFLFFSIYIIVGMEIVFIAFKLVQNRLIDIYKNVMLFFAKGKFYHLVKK
# [5] = biological target: T3, EAG1 (Homo sapiens, UniProt O95259)
# T3 sequence (O95259 1-989): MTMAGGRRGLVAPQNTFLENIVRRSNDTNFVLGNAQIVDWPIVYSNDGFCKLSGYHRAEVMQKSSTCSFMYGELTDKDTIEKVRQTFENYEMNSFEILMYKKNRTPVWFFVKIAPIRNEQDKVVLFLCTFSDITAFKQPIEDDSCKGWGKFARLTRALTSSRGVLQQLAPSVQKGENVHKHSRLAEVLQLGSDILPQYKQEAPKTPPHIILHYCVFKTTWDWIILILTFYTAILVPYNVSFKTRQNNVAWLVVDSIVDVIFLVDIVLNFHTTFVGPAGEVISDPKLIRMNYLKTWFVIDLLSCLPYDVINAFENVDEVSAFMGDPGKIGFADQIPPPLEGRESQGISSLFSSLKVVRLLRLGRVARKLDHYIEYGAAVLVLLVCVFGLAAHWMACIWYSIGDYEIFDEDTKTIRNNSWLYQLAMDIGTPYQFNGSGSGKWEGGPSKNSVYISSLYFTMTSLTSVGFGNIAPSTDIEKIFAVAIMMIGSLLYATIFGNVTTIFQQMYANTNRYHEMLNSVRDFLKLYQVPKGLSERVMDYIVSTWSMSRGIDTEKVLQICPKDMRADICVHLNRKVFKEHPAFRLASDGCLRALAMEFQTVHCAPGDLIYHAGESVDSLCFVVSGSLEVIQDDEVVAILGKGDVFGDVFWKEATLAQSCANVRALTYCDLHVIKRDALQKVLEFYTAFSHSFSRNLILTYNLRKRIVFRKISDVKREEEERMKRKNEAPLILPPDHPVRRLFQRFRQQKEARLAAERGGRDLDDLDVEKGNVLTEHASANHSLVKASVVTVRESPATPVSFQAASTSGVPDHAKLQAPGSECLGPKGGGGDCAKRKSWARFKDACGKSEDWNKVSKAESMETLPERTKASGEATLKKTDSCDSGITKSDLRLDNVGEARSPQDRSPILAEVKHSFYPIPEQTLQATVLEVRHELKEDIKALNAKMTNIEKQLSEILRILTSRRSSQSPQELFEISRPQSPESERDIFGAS
# Chain of hERG (Q12809 whole entry): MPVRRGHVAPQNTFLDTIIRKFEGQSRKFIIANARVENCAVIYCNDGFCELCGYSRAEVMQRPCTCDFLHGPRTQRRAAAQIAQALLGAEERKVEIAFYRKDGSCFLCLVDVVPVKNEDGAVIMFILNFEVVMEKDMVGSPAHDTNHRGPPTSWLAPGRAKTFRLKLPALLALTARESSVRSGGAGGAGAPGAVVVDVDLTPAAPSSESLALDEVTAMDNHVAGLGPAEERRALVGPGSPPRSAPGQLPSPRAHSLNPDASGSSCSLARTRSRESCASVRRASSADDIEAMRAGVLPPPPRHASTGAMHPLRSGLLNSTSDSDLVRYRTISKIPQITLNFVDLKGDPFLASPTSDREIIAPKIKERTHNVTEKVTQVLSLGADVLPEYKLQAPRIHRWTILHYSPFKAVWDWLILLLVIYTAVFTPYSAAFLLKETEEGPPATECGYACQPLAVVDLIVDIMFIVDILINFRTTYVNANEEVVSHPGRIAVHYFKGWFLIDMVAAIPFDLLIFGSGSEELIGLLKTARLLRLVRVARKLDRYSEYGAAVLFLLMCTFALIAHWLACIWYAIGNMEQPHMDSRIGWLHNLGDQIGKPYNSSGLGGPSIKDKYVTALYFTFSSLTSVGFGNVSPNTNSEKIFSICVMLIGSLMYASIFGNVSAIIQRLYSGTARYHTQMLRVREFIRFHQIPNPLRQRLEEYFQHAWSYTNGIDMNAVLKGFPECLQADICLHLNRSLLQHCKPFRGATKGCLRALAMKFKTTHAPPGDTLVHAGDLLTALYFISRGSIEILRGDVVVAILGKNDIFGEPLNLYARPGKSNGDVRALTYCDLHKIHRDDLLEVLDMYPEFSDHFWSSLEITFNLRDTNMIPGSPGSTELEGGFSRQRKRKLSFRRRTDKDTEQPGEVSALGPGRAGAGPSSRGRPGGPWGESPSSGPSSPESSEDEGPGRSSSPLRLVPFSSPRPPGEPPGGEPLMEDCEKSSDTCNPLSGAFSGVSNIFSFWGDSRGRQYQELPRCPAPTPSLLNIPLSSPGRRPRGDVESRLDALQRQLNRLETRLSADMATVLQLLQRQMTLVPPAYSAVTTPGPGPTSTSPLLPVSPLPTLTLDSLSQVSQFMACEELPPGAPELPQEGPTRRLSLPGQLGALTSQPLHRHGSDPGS
# Chain of TRPV4 (Q9HBA0 whole entry): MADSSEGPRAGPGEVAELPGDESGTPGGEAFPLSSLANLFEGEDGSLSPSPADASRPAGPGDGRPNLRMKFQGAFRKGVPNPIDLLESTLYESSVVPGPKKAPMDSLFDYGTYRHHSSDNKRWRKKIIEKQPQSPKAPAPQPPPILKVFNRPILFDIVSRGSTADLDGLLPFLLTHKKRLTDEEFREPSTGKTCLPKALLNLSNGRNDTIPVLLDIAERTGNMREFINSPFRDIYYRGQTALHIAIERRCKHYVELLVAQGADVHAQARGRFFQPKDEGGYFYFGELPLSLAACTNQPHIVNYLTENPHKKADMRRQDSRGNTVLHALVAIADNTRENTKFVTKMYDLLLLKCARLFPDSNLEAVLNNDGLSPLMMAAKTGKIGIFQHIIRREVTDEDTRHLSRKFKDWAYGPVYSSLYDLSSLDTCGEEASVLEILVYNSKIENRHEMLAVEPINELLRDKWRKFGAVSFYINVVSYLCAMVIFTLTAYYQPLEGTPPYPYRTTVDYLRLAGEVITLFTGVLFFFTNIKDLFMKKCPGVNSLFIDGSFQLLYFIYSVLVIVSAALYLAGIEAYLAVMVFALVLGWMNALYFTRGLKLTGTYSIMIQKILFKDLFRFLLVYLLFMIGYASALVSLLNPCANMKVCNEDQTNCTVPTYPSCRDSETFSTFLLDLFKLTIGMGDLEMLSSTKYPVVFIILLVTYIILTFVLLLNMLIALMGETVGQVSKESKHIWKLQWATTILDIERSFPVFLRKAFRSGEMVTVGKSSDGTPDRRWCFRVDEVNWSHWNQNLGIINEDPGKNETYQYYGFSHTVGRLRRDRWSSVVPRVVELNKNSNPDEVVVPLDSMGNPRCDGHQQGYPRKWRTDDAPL
structure (smiles),measurement,setting,value
"O=C(c1ccccc1F)N1CCN(Cc2c(-c3ccc(Br)cc3)nc3ccccn23)CC1 [BAY 1000493, (4-{[2-(4-bromophenyl)imidazo[1,2-a]pyridin-3-yl]methyl}vpiperazin-1-yl)(2-fluorophenyl)methanone]",IC50,[1],> 30 µM
same,IC50,[2],> 10 µM
same,IC50,[3],2400 nM
same,IC50,[4],> 30 µM
same,IC50,[5],> 30 µM
